Assay results published in patent US20220323406A1, “METHODS AND COMPOSITIONS FOR DIFFERENTIATING STEM CELLS” (Massachusetts Institute of Technology, priority 2019, published 2022).

Columns and labels:
[1] = tested on: ENR+CD organoids (ISC to Paneth cell differentiation); experiment: Primary screen: CCh-stimulated lysozyme secretion LYZ.S, 2.5-D 384-well ENR+CD organoid differentiation; format: cell-based, mouse; settings: primary screen
Description: (§1) High-throughput screening.

[2] = tested on: ENR+CD organoids; experiment: Primary screen: ATP (CellTiter-Glo 3D, CTG) cell number/viability, 2.5-D 384-well ENR+CD organoids; settings: primary screen; for Z.CTG: standard z score;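 on all read-outs here: compounds given at plating and again on day 3 over a 6-day differentiation from ENR+CV stem-cell-enriched precursors, ATP measured on day 6, plate median as control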
[3] = tested on: ENR+CD organoids (ISC to Paneth cell differentiation); experiment: Primary screen: basal (non-stimulated) lysozyme secretion LYZ.NS, 2.5-D 384-well ENR+CD organoid differentiation; format: cell-based, mouse
Description: as §1

[4] = dose 0.08 uM, FC relative to plate median
[5] = dose 0.40 uM, FC relative to plate median
[6] = dose 2.00 uM, FC relative to plate median
[7] = dose 10.00 uM, FC relative to plate median
[8] = primary screen, dose 0.08 uM, FC relative to plate median
[9] = primary screen, dose 0.08 uM, standard z score
[10] = primary screen, dose 0.40 uM, FC relative to plate median
[11] = primary screen, dose 0.40 uM, standard z score
[12] = primary screen, dose 2.00 uM, FC relative to plate median
[13] = primary screen, dose 2.00 uM, standard z score
[14] = primary screen, dose 10.00 uM, FC relative to plate median
[15] = primary screen, dose 10.00 uM, standard z score

| Compound | Dose.FC.LYZ.S ([1]; dose 0.08 uM) [log2 fold change] | Dose.FC.LYZ.S ([1]; dose 0.40 uM) [log2 fold change] | Dose.FC.LYZ.S ([1]; dose 2.00 uM) [log2 fold change] | Dose.FC.LYZ.S ([1]; dose 10.00 uM) [log2 fold change] | Dose.FC.CTG ([2]; dose 0.08 uM) [log2 fold change] | Dose.FC.CTG ([2]; dose 0.40 uM) [log2 fold change] | Dose.FC.CTG ([2]; dose 2.00 uM) [log2 fold change] | Dose.FC.CTG ([2]; dose 10.00 uM) [log2 fold change] | Dose.FC.LYZ.NS ([3]; primary screen, dose 0.08 uM) [log2 fold change] | Dose.FC.LYZ.NS ([3]; primary screen, dose 0.40 uM) [log2 fold change] | Dose.FC.LYZ.NS ([3]; primary screen, dose 2.00 uM) [log2 fold change] | Dose.FC.LYZ.NS ([3]; primary screen, dose 10.00 uM) [log2 fold change] | Dose.FC.LYZ.S [1, 4] [log2 fold change] | Dose.FC.LYZ.S [1, 5] [log2 fold change] | Dose.FC.LYZ.S [1, 6] [log2 fold change] | Dose.FC.LYZ.S [1, 7] [log2 fold change] | Dose.FC.CTG [2, 4] [log2 fold change] | Z.CTG ([2]; dose 0.08 uM) | Dose.FC.CTG [2, 5] [log2 fold change] | Z.CTG ([2]; dose 0.40 uM) | also measured |
| --- | --- | --- | --- | --- | --- | --- | --- | --- | --- | --- | --- | --- | --- | --- | --- | --- | --- | --- | --- | --- | --- |
| C=C1C(=O)O[C@@H]2/C=C(\C)CC/C=C(\C)CC[C@@H]12 [Costunolide] | 0.171 | 0.103 | −0.006 | 0.006 | −0.029 | 0.121 | 0.050 | 0.008 | 0.131 | 0.067 | −0.018 | 0.047 | – | – | – | – | – | – | – | – | Z.LYZ.NS ([3]; primary screen, standard z score, dose 0.08 uM): 1.143; Z.LYZ.NS ([3]; primary screen, standard z score, dose 0.40 uM): 0.585; Z.LYZ.NS ([3]; primary screen, standard z score, dose 2.00 uM): −0.157; Z.LYZ.NS ([3]; primary screen, standard z score, dose 10.00 uM): 0.408 |
| Cc1ccc(C(=O)N(CCCN)[C@@H](c2oc3cc(Cl)ccc3c(=O)c2Cc2ccccc2)C(C)C)cc1 [SB743921] | – | – | – | – | – | – | – | – | – | – | – | – | −0.321 | −0.329 | −0.340 | −0.350 | −0.485 | −1.159 | −0.777 | −1.855 | Dose.FC.CTG [2, 6]: −0.485 log2 fold change; Z.CTG ([2]; dose 2.00 uM): −1.158; Dose.FC.CTG [2, 7]: −0.542 log2 fold change; Z.CTG ([2]; dose 10.00 uM): −1.294; Dose.FC.LYZ.NS [3, 8]: −0.232 log2 fold change; Z.LYZ.NS [3, 9]: −2.017; Dose.FC.LYZ.NS [3, 10]: −0.247 log2 fold change; Z.LYZ.NS [3, 11]: −2.148; Dose.FC.LYZ.NS [3, 12]: −0.264 log2 fold change; Z.LYZ.NS [3, 13]: −2.297; Dose.FC.LYZ.NS [3, 14]: −0.238 log2 fold change; Z.LYZ.NS [3, 15]: −2.068 |
| NC(=O)c1ncn([C@@H]2O[C@H](CO)[C@@H](O)[C@H]2O)c1N [Acadesine] | 0.004 | −0.012 | 0.053 | −0.102 | 0.094 | 0.173 | −0.005 | 0.076 | 0.023 | −0.016 | 0.016 | −0.070 | – | – | – | – | – | – | – | – | Z.LYZ.NS (standard z score) ([3]; primary screen, dose 0.08 uM): 0.198; Z.LYZ.NS (standard z score) ([3]; primary screen, dose 0.40 uM): −0.137; Z.LYZ.NS (standard z score) ([3]; primary screen, dose 2.00 uM): 0.140; Z.LYZ.NS (standard z score) ([3]; primary screen, dose 10.00 uM): −0.607 |
| O=C(Nc1ccccc1Br)N[C@@H]1CCN(c2ccc(C(F)(F)F)cn2)C1 [SB705498] | – | – | – | – | – | – | – | – | – | – | – | – | 0.094 | 0.023 | −0.030 | −0.023 | 0.133 | 0.318 | −0.043 | −0.102 | Dose.FC.CTG [2, 6]: −0.004 log2 fold change; Z.CTG ([2]; dose 2.00 uM): −0.009; Dose.FC.CTG [2, 7]: −0.037 log2 fold change; Z.CTG ([2]; dose 10.00 uM): −0.089; Dose.FC.LYZ.NS [3, 8]: 0.074 log2 fold change; Z.LYZ.NS [3, 9]: 0.642; Dose.FC.LYZ.NS [3, 10]: −0.050 log2 fold change; Z.LYZ.NS [3, 11]: −0.433; Dose.FC.LYZ.NS [3, 12]: −0.001 log2 fold change; Z.LYZ.NS [3, 13]: −0.008; Dose.FC.LYZ.NS [3, 14]: −0.018 log2 fold change; Z.LYZ.NS [3, 15]: −0.154 |
| CNCc1ccc(-c2cc(-c3nc(-c4ccc(S(=O)(=O)C(C)C)cc4)cnc3N)on2)cc1 [VE-822] | 0.104 | −0.064 | −0.302 | −0.321 | −0.147 | −0.287 | −0.717 | −1.763 | 0.058 | −0.040 | −0.220 | −0.210 | – | – | – | – | – | – | – | – | Z.LYZ.NS (standard z score) ([3]; primary screen, dose 0.08 uM): 0.505; Z.LYZ.NS (standard z score) ([3]; primary screen, dose 0.40 uM): −0.351; Z.LYZ.NS (standard z score) ([3]; primary screen, dose 2.00 uM): −1.913; Z.LYZ.NS (standard z score) ([3]; primary screen, dose 10.00 uM): −1.825 |
